Data from patent publication US20090258850A1, “STABILIZED THERAPEUTIC COMPOSITIONS AND FORMULATIONS” (priority 2007, published 2009).

How the values were obtained:
[1] = test system: rhesus monkeys subjected to 6 Gy TBI; conditions: in vivo
[2] = test system: immature repopulating cells in bone marrow of BALB/c donor mice; assay: Immature repopulating cell subsets (CFU-S day 12, MRA day 13) after fractionated 3x2 Gy TBI of BALB/c donor mice; format: in vivo; conditions: fractionated 3×2 Gy TBI; for increase in CFU-S day 12 relative to radiation controls: 40 mg/Kg/d 5-AED IM, 0.7 μg TPO IP after each fraction
Protocol: (§1) Combination Treatment with androst-5-ene-3β,17β-diol formulation and TPO. For direct measurements of the radioprotective effect of 5-AED, BALB/c mice were exposed to a midlethal dose of 6 Gy TBI. Two hours after TBI, mice were injected IM with 40 mg/kg 5-AED or the carrier as placebo, with or without 0.225 μg TPO or 10 μg Peg-G-CSF IP. Radioprotective effects of 5-AED on immature repopulating cell subsets were assessed by exposing BALB/c donor mice to 3 fractions of 2 Gy TBI, separated by 24 hours, and treatment with 40 mg/Kg/d 5-AED or the carrier IM, or 0.7 μg TPO IP after each fraction or a single injection of 10 μg Peg-G-CSF IP after the first fraction. Twenty four hours after the last fraction, bone marrow of donor mice was examined for immature cell content per femur using the marrow repopulating ability (MRA day 13) assay and the CFU-S day 12 after transplantation in 8 Gy irradiated mice.

[3] = test system: BALB/c mice exposed to 6 Gy TBI; assay: Radioprotective effect in BALB/c mice after midlethal 6 Gy TBI; format: in vivo
Protocol: as §1

[4] = test system: non-irradiated monkeys; conditions: 15 mg/Kg/d i.m. x5 days, no TBI
Protocol: Primates used in this study were purpose bred rhesus monkeys (Macaca Mulatta), weighing 2.5 to 4.0 Kg each and aged 2 to 3 years. 5-Androstene-3β,17β-diol (5-AED), prepared as a 100 mg/mL aqueous suspension using 7.4 mM sodium phosphate buffer, pH 6.0, containing 0.5% polysorbate 80, 0.02% benzalkonium chloride and 4.8% mannitol and its vehicle, consisting of the identical formulation without 5-AED, was administered intramuscularly (i.m.) at a dose of 15 mg/kg/d (150 μL/Kg/d), for 5 consecutive days. […] 5-AED and vehicle were administered by deep intramuscular injections into alternating left and right m. vastus lateralis. In the second study, 10 animals (3 males and 2 females in each group) received either 15 mg/Kg/d (150 μL/Kg/d), 5-AED in a stabilized formulation or vehicle for 5 consecutive days, but were not subjected to TBI.
Clinical pathology was conducted as follows: Bone marrow was aspirated under neurolept anesthesia using Ketalar (Apharmo, Arnhem, the Netherlands) and Domitor (Pfizer, Capelle a/d lJssel, The Netherlands). Small bone marrow aspirates for analytical purposes were taken from the shafts of the femurs or humeri using pediatric spinal needles and collected in bottles containing 2 mL HEPES buffered Hanks' balanced salt solution (HBBS) with 200 IU sodium heparin/mL (Leo Pharmaceutical Products, Weesp, the Netherlands). Low-density cells were isolated using Lymphoprep (density 1.077, Fresenius, Oslo, Norway) separation. Cells were plated in 35-mm dishes (Falcon 1008, Becton Dickinson, Leiden, The Netherlands) in 1 mL enriched Dulbecco's medium containing 0.8% methylcellulose, 5% FCS, and additives. […] Colony counts were calculated per mL of bone marrow aspirated using the recovery of cells over the Ficoll density gradient. […] Complete blood cell counts were measured daily using an ABC-vet animal blood counter (Scil, ABX diagnostics, Montpellier, France). […] Measurements were done using a FACSCalibur (Becton Dickinson, Leiden, The Netherlands) and 50,000 events were collected in duplicate and analyzed using the CellQuest (Becton Dickinson) software. […]

## C[C@]12CC[C@H]3[C@@H](CC=C4C[C@@H](O)CC[C@@]43C)[C@@H]1CC[C@@H]2O [5-AED, androst-5-ene-3β,17β-diol]
[1]
  bone marrow cellularity: 8.7±5.3 ×10^6 cells/mL bone marrow aspirate
  day reticulocytes reached levels >0.05×10^9/mL in peripheral blood: 19.0±1.1 day
  direct local or systemic toxic effects: not observed
  edema: transient edema, which resolved without sequela
  increase in body weight due to fluid retention: up to 13.6%
  increase of CD34+ cells in BM in comparison to HERF-418 treated monkeys: 90 fold
  neutrophil recovery: accelerated neutrophil recovery
  reduction of the period of leukopenia: 4 days
  shortening of the time to transfusion-independence: 4 days
  transfusions needed to maintain platelets levels of >40×10^6/mL: 1.3±0.5
[2]
  increase in CFU-S day 12 relative to radiation controls: 5 fold
[2]; 40 mg/Kg/d IM, range 0-5785
  MRA, expressed as GM-CFU per femur at 13 days after transplantation: 1002 colonies
[3]; 40 mg/kg IM 2 hours after 6 Gy TBI, 14 days post-TBI vs placebo
  multilineage recovery (white blood cells, platelets, red blood cells, bone marrow cellularity, colony forming cells): accelerated multilineage recovery
[3]; dose up to 200 mg/kg
  effect of increasing the dose on multilineage recovery: did not augment this effect
[4]
  day of maximum neutrophilic granulocyte increase after initiation of the treatment: 2 days
  effect on other hematopoietic lineages, bone marrow cellularity and progenitor cell content: did not affect
[4]; n=5
  increase from baseline levels in neutrophilic granulocytes in the peripheral blood: 3.6 fold

B1: Peg-G-CSF: Peg-G-CSF injected IP in mice (protein, UniProt P09919 31-207, looked up)
Granulocyte …: TPLGPASSLPQSFLLKCLEQVRKIQGDGAALQEKLVSECATYKLCHPEELVLLGHSLGIPWAPLSSCPSQALQLAGCLSQLHSGLFLYQGLLQALEGISPELGPTLDTLQLDVADFATTIWQQMEELGMAPALQPTQGAMPAFASAFQRRAGGVLVASHLQSFLEVSYRVLRHLAQP
modifications: PEGylated
notes: Peg-G-CSF injected IP in mice
[2]; single injection 10 μg Peg-G-CSF IP after first fraction
  effect on CFU-S day 12: did not affect

B2: TPO: TPO injected IP in mice; promotes CFU-S reconstitution (protein, UniProt P40226 22-356, looked up)
Thrombopoietin: SPVAPACDPRLLNKLLRDSHLLHSRLSQCPDVDPLSIPVLLPAVDFSLGEWKTQTEQSKAQDILGAVSLLLEGVMAARGQLEPSCLSSLLGQLSGQVRLLLGALQGLLGTQLPLQGRTTAHKDPNALFLSLQQLLRGKVRFLLLVEGPTLCVRRTLPTTAVPSSTSQLLTLNKFPNRTSGLLETNFSVTARTAGPGLLSRLQGFRVKITPGQLNQTSRSPVQISGYLNRTHGPVNGTHGLFAGTSLQTLEASDISPGAFNKGSLAFNLQGGLPPSPSLAPDGHTPFPPSPALPTTHGSPPQLHPLFPDPSTTMPNSTAPHPVTMYPHPRNLSQET
[2]
  increase in CFU-S day 12 relative to radiation controls: 7 fold
